From ChEMBL document CHEMBL5537109, “Natural products as potential lead compounds to develop new antiviral drugs over the past decade” (Eur J Med Chem, 2023)
In brackets after ≈: the same amount, converted by molar mass.

Assays:
[1] = system: Human immunodeficiency virus 1; assay: Antiviral activity against HIV-1 3B harboring reverse transcriptase infected in human MT4 cells assessed as protection against virus-induced cytopathic effect incubated for 5 days by MTT assay; assay type: functional, organism-based; conditions: Human immunodeficiency virus 1, 3B, MT4, 120 h
[2] = Cytotoxicity against human C8166 cells assessed as inhibition of cell growth by MTT assay; assay type: toxicity, cell-based
[3] = system: Human immunodeficiency virus 1; assay: Antiviral activity against HIV-1 3B harboring reverse transcriptase infected in human C8166 cells assessed as protection against virus-induced cytopathic effect incubated for 5 days by MTT assay; assay type: functional, organism-based; conditions: Human immunodeficiency virus 1, 3B, C8166, 120 h
[4] = system: Human immunodeficiency virus 1; assay: Antiviral activity against HIV-1 3B infected in human MT4 cells assessed as inhibition of viral replication incubated for 5 days by MTT assay; assay type: functional, organism-based; conditions: Human immunodeficiency virus 1, 3B, MT4, 120 h
[5] = Cytotoxicity against human C8166 cells assessed as inhibition of cell growth incubated for 48 hrs by MTT assay; assay type: toxicity, cell-based
[6] = target: Human immunodeficiency virus type 1 reverse transcriptase (Human immunodeficiency virus 1, UniProt Q72547); assay: Inhibition of HIV1 reverse transcriptase
[7] = system: Human immunodeficiency virus 1; assay: Anti-HIV activity against HIV-1 IIIB infected in human C8166 cells assessed as inhibition of virus-induced cytopathic effect by MTT assay; assay type: functional, organism-based; conditions: Human immunodeficiency virus 1, IIIB
[8] = system: Influenza A virus; assay: Antiviral activity against influenza A virus H5N1 infected in dog MDCK cells assessed as viral growth inhibition; assay type: functional, organism-based
[9] = system: Influenza A virus; assay: Antiviral activity against influenza A virus H1N1(A/PR/8/34) infected in MDCK cells assessed as inhibition of cytopathic effect incubated for 48 hrs by MTT assay; assay type: functional, organism-based
[10] = Inhibition of Influenza A virus A/California/04/2009 (H1N1) N-terminal his tagged domain of PA endonuclease expressed in Escherichia coli BL21 (DE3) cells
[11] = system: Influenza A virus; assay: Antiviral activity against influenza A virus A/Hong Kong/1/68 (HK1, H3N2) infected in dog MDCK cells assessed as cytopathic effect; assay type: functional, organism-based
[12] = Cytotoxicity against MDCK cells assessed as inhibition of cell growth incubated for 48 hrs by MTT assay; assay type: toxicity, cell-based, Canis lupus familiaris; conditions: dog
[13] = system: Human alphaherpesvirus 1; assay: Antiviral activity against HSV-1 assessed as inhibition of viral growth; assay type: functional, organism-based
[14] = system: Human immunodeficiency virus 1; assay: Antiviral activity against HIV-1 harboring reverse transcriptase infected in human MT4 cells assessed as reduction in virus-induced cytopathic effect; assay type: functional, organism-based; conditions: Human immunodeficiency virus 1, MT4
[15] = system: RAW264.7; assay: Cytotoxicity against mouse RAW264.7 cells assessed as reduction in cell viability incubated for 24 hrs by CCK-8 method; assay type: functional

Work on C=CC(C)(C)c1cc2cc(CC(=O)C(C)C)c(OC)cc2oc1=O yielded an EC50 [1] of 0.12 µM and a CC50 [2] of over 200 µM.
In the case of COc1cc2oc(CO)cc(=O)c2c(O)c1CCC(C)(C)O, the CC50 [2] is reported as over 200 µM and the EC50 [3] is reported as 0.09 µM.
With C=CC(C)(C)c1cc2cc(C[C@@H](O)C(C)(C)O)c(O)cc2oc1=O the CC50 [2] was over 200 µM and the EC50 [3] was 0.68 µM.
For C=CC(C)(C)c1cc2cc(C[C@@H](OCC)C(C)(C)O)c(OC)cc2oc1=O, the EC50 [1] was 0.42 µM and the CC50 [2] was over 200 µM.
With CC(C)=CCc1c(O)cc2oc(CO)cc(=O)c2c1O the CC50 [2] was over 200 µM and the EC50 [3] was 0.67 µM.
For COc1cc2oc(CO)cc(=O)c2c(OC)c1CC=C(C)C, the CC50 [2] was over 200 µM and the EC50 [3] was 1.32 µM.
C=CC(CO)[C@@H]1C[C@H]2c3[nH]c4ccccc4c3CCN2C(=O)[C@H]1CO (stereo partly drawn) gave an EC50 [4] of 0.06 µM.
Work on COc1c2c(cc3oc(CO)cc(=O)c13)OC(C)(C)C=C2 yielded a CC50 [2] of over 200 µM and an EC50 [3] of 9.72 µM.
C=CC(C)(C)c1cc2cc3c(cc2oc1=O)O[C@H](C(C)(C)O)[C@H]3O showed a CC50 [2] of over 200 µM and an EC50 [3] of 0.17 µM.
C=CC(CO)[C@@H]1C[C@H]2c3[nH]c4ccccc4c3CCN2C(=O)[C@@H]1CO (stereo partly drawn) gave an EC50 [4] of 0.23 µM and a CC50 at 48 h [5] of over 200 µM.
COc1cc2oc(CO)cc(=O)c2c(O)c1CC=C(C)C gave a CC50 [2] of over 200 µM and an EC50 [3] of 0.96 µM.
In the case of C=CC(C)(C)c1cc2cc(C[C@@H](OC)C(C)(C)O)c(OC)cc2oc1=O, the EC50 [1] is reported as 0.33 µM and the CC50 [2] is reported as over 200 µM.
In the case of COc1cc(C)c(Cc2cc3c([nH]c4ccccc43)c3c2OC(C)(C)C=C3)c2c1[nH]c1ccccc12, the CC50 at 48 h [5] is reported as over 200 µM and the IC50 [6] is reported as 0.0186 µM.
Molecule COc1cccc2c1-c1c3c(c(OC)c4cc[n+]([O-])c(c14)C2=O)OCO3 has a CC50 at 48 h [5] of 56.6 µM and an EC50 [7] of 2.18 µM.
In the case of O=C(OC[C@H]1O[C@@H](Oc2ccc(O)cc2C(=O)O)[C@H](OC(=O)c2cc(O)c(O)c(O)c2)[C@@H](O)[C@@H]1O)c1cc(O)c(O)c(O)c1, the IC50 [8] is reported as 21.1 µM, the EC50 [9] is reported as 32.1 µM and the IC50 [10] is reported as 27.6 µM. The EC50 [11] was 31.2 µM and the CC50 at 48 h [12] was 835 µM.
With COc1cc(OC)c([N+](=O)[O-])c2c1-c1c3c(c(OC)c4c1[C@@H](C2)NCC4)OCO3 the CC50 at 48 h [5] was 28.7 µM and the EC50 [7] was 1.93 µM.
Molecule C/C=C1/C[N+]23CCc4c([nH]c5ccccc45)[C@@H]2C[C@H]1C3C(=O)[O-] (stereo partly drawn) has an EC50 [13] of 1.09 µg/mL (≈ 3.53 µM).
Molecule C[C@H]1CC(=O)[C@@H]2CCCN(C)CCCC(=O)/C(=N\O)C[C@@H]2C1 has a CC50 at 48 h [5] of over 200 µM and an EC50 [7] of 52.9 µg/mL.
CCCCCC(O)/C=C/C=C\CCCCCC[C@@]1(O)C[C@H](C(=O)OC)[C@H](C(C)=O)O1 (stereo partly drawn) gave a CC50 [2] of over 200 µM and an EC50 [3] of 0.08 µM.
C=C1[C@H]2O[C@@H](OC)[C@H]3[C@@H]1[C@@H]1O[C@@H]1[C@@]3(CO)O2 gave an IC50 [6] of 7.23 µM and a CC50 [2] of over 200 µM.
C=C(C)[C@@]1(OC(=O)c2ccccc2)[C@H](OC(C)=O)[C@@H]2[C@H](OC(C)=O)[C@@]3(C)O[C@@]4([C@@H]3OC(C)=O)[C@@H](OC(=O)c3ccccc3)[C@@H](C)C[C@H]4[C@@]2(O)[C@H](C)[C@@H]1OC(C)=O gave an EC50 [14] of 0.18 µM and a CC50 [15] of over 200 µM.
